Assay results as given in ChEMBL document CHEMBL1201862, “PubChem BioAssay data set” (2004).
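All cell lines were grown in 96-well plates and treated with compound for 48 hours. At the GI50, growth is halved.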 Activity calls are given as the source filed them. Rule as the data show it: active = GI50 up to about 1.1 µM and inactive = higher.

How the values were obtained:
Assay in all cases: growth of human tumour cells (NCI), 48 h
UACC-62 = test system: UACC-62
OVCAR-5 = test system: OVCAR-5
CCRF-CEM = test system: CCRF-CEM
A549 = test system: A549
SF-268 = test system: SF-268
SW-620 = test system: SW-620
SK-MEL-28 = test system: SK-MEL-28
NCI-H23 = test system: NCI-H23
786-0 = test system: 786-0
RXF 393 = test system: RXF 393
SF-295 = test system: SF-295
U-251 = test system: U-251
RPMI-8226 = test system: RPMI-8226
M14 = test system: M14
SK-MEL-5 = test system: SK-MEL-5
HT-29 = test system: HT-29
HOP-62 = test system: HOP-62

Measured: GI50

COC(=O)/C(=N\NC(=S)NN)C(C(=O)C(=O)Nc1ccccc1C(N)=O)c1nc2ccccc2nc1O (stereo unspecified)
inactive: UACC-62 > 100 µM | OVCAR-5 > 100 µM | CCRF-CEM > 100 µM | A549 > 100 µM | SF-268 > 100 µM | SW-620 > 100 µM | SK-MEL-28 > 100 µM | NCI-H23 7.69 µM | 786-0 > 100 µM | RXF 393 > 100 µM | SF-295 > 100 µM | U-251 > 100 µM | RPMI-8226 > 100 µM | M14 > 100 µM | SK-MEL-5 > 100 µM

O=C(Cc1nc2ccccc2s1)C(=O)Nc1ccc(Cl)cc1Cl
inactive: OVCAR-5 > 100 µM | A549 > 100 µM | HT-29 > 100 µM | SF-268 > 100 µM | SW-620 > 100 µM | SK-MEL-28 > 100 µM | HOP-62 39.9 µM | NCI-H23 54 µM | 786-0 > 100 µM | SF-295 > 100 µM | U-251 > 100 µM | RPMI-8226 > 100 µM | M14 > 100 µM

COc1ccc(N2C(=O)/C(=C/c3ccc(N(CCC#N)CCC#N)cc3C)N=C2/C=C\c2ccccc2)cc1
inactive: UACC-62 5.24 µM | OVCAR-5 > 100 µM | CCRF-CEM 24 µM | A549 53 µM | HT-29 38.9 µM | SF-268 22.6 µM | SW-620 33.2 µM | SK-MEL-28 31.4 µM | HOP-62 24.4 µM | NCI-H23 49.5 µM | 786-0 44.4 µM | SF-295 35.5 µM | U-251 46.8 µM | RPMI-8226 41.1 µM | M14 27.1 µM | SK-MEL-5 31.9 µM

COC(=O)C1=C(C(=O)OC)C2(C)OC1C(=O)C21CC1 (stereo unspecified)
inactive: OVCAR-5 > 100 µM | CCRF-CEM 16.9 µM | A549 > 100 µM | HT-29 18.1 µM | SF-268 54.5 µM | SW-620 19.5 µM | HOP-62 > 100 µM | NCI-H23 22 µM | 786-0 38.7 µM | RXF 393 16.8 µM | SF-295 44 µM | U-251 > 100 µM | RPMI-8226 16.9 µM | M14 15.3 µM | SK-MEL-5 > 100 µM

CCOC(=O)C(NO)C(Sc1ccccc1)c1ccc(OC)cc1 (stereo unspecified)
inactive: UACC-62 37.6 µM | OVCAR-5 > 100 µM | A549 38.6 µM | HT-29 > 100 µM | SF-268 > 100 µM | SW-620 > 100 µM | SK-MEL-28 > 100 µM | HOP-62 88.3 µM | NCI-H23 > 100 µM | 786-0 > 100 µM | RXF 393 23.9 µM | SF-295 > 100 µM | U-251 > 100 µM | RPMI-8226 55.3 µM | M14 > 100 µM | SK-MEL-5 30.7 µM

O=C1CCN2C(=Nc3cccc4cccc2c34)N1
inactive: UACC-62 > 100 µM | OVCAR-5 > 100 µM | CCRF-CEM > 100 µM | A549 > 100 µM | HT-29 > 100 µM | SF-268 > 100 µM | SW-620 > 100 µM | SK-MEL-28 > 100 µM | HOP-62 > 100 µM | NCI-H23 > 100 µM | 786-0 26.1 µM | RXF 393 > 100 µM | U-251 > 100 µM | RPMI-8226 > 100 µM | M14 > 100 µM | SK-MEL-5 > 100 µM

COc1cc(N)c2[nH]c3c(C)ccc(C)c3c2c1
inactive: OVCAR-5 > 100 µM | CCRF-CEM > 100 µM | A549 > 100 µM | HT-29 > 100 µM | SF-268 > 100 µM | SW-620 > 100 µM | SK-MEL-28 > 100 µM | HOP-62 > 100 µM | NCI-H23 > 10 µM | 786-0 > 100 µM | SF-295 > 100 µM | RPMI-8226 > 100 µM | M14 > 100 µM | SK-MEL-5 > 100 µM

CC(C)=CCC/C(C)=C/CC/C(C)=C/Cc1c(O)c2ccccc2oc1=O
inactive: UACC-62 63.7 µM | CCRF-CEM > 100 µM | A549 65.6 µM | HT-29 > 100 µM | SF-268 > 100 µM | SW-620 > 100 µM | SK-MEL-28 > 100 µM | HOP-62 > 100 µM | NCI-H23 55.8 µM | 786-0 > 100 µM | RXF 393 99.1 µM | SF-295 > 100 µM | U-251 57.9 µM | RPMI-8226 91.6 µM | M14 > 100 µM

Cc1nc(N)sc1C(=O)/C=C/c1ccc(/C=C/C(=O)c2sc(NC(=O)CCCCCCCCC(=O)Nc3nc(C)c(C(=O)/C=C/c4ccc(/C=C/C(=O)c5sc(N)nc5C)cc4)s3)nc2C)cc1
inactive: UACC-62 27.7 µM | OVCAR-5 > 100 µM | CCRF-CEM 80.9 µM | A549 > 100 µM | HT-29 > 100 µM | SF-268 > 100 µM | SW-620 > 100 µM | SK-MEL-28 52.8 µM | HOP-62 > 100 µM | NCI-H23 > 100 µM | 786-0 > 100 µM | RXF 393 > 100 µM | SF-295 > 100 µM | U-251 > 100 µM | RPMI-8226 > 10 µM | M14 > 100 µM
